In patent US11999732B2, “P2X3 receptor antagonists” (RECORDATI INDUSTRIA CHIMICA E FARMACEUTICA SPA, priority 2018, dated 2024):
Like-named read-outs stand apart in the source and are kept apart here. Values belong to the compound of their own block, whether it stands above or below them.

Target: T1, human P2X3 receptor (Homo sapiens, UniProt P56373)
T1 construct: expressed in transfected cells; host or cells: CHO-K1
T1 sequence (P56373 1-397): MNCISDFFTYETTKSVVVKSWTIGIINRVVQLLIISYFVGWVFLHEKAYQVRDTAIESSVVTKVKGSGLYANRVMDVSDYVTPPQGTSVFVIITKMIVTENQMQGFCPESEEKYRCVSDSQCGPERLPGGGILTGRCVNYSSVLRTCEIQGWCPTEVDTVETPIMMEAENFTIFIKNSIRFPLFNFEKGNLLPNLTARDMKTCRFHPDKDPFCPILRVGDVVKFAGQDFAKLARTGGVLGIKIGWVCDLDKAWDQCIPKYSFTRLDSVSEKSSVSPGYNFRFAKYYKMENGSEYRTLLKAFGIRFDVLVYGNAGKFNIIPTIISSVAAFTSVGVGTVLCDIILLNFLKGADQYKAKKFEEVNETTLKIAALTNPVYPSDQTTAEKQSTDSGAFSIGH
Assay: Calcium luminescence (photoprotein) assay in CHO-K1 cells co-expressing human P2X3 receptor, α,β-Met-ATP stimulation, FLEXSTATION readout
Type: cell-based
Conditions: human P2X3 receptor antagonist activity, CHO-K1 cells, α,β-Met-ATP, read-out: h-P2X3 IC50
Method in brief: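 CHO-K1 cells co-expressing human P2X3 and a Ca2+-sensitive photoprotein, loaded with coelenterazine in Tyrode's buffer (pH 7.4) for 4 h at 37 °C. Compounds injected 4 min before α,β-Met-ATP stimulation; luminescence recorded, IC50 and pseudo-Hill slope from nonlinear regression of inhibition curves.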

IC50 (Table 9): 2170 nM
SMILES: CCC1CCN=C2c3ncc(N4CCOCC4)cc3N(Cc3ccc(Cl)cc3)C(=O)N21 (stereo not shown) [Example 155, 5-(4-chlorobenzyl)-8-ethyl-3-(morpholin-4-yl)-5,8,9,10-tetrahydro-6H-pyrido[2,3-e]pyrimido[1,2-c]pyrimidin-6-one]

IC50 (Table 9): 2.59 nM
SMILES: CC(C)(C)c1nnc2c3ncc(N4CCOCC4)cc3n(Cc3ccc(Cl)cn3)c(=O)n12 [Example 173, 3-tert-butyl-6-[(5-chloropyridin-2-yl)methyl]-8-(morpholin-4-yl)pyrido[2,3-e][1,2,4]triazolo[4,3-c]pyrimidin-5(6H)-one]

IC50 (Table 9): 2260 nM
SMILES: CC1(C)CN=C2c3ncc(NCCO)cc3N(Cc3ccc(Cl)cc3)C(=O)N2C1 [Example 143, 5-(4-chlorobenzyl)-3-[(2-hydroxyethyl)amino]-9,9-dimethyl-5,8,9,10-tetrahydro-6H-pyrido[2,3-e]pyrimido[1,2-c]pyrimidin-6-one]

IC50 (Table 8): 1050 nM
SMILES: COCCNc1cnc2c(c1)c(Cc1cc(OC)cc(OC)c1)nn1c(CC(C)C)nnc21 [Example 118, 6-(3,5-dimethoxybenzyl)-n-(2-methoxyethyl)-3-(2-methylpropyl)pyrido[2,3-d][1,2,4]triazolo[4,3-b]pyridazin-8-amine]

IC50 (Table 9): 938 nM
SMILES: CCC1CCN=C2c3ncc(N4CCOCC4)cc3N(Cc3cc(OC)cc(OC)c3)C(=O)N21 (stereo not shown) [Example 151, 5-(3,5-dimethoxybenzyl)-8-ethyl-3-(morpholin-4-yl)-5,8,9,10-tetrahydro-6H-pyrido[2,3-e]pyrimido[1,2-c]pyrimidin-6-one]

IC50 (Table 9): 700 nM
SMILES: CC(C)c1nnc2c3ncc(N4CCC(O)CC4)cc3n(Cc3ccc(Cl)cc3)c(=O)n12 [Example 171, 6-(4-chlorobenzyl)-8-(4-hydroxypiperidin-1-yl)-3-(propan-2-yl)pyrido[2,3-e][1,2,4]triazolo[4,3-c]pyrimidin-5(6H)-one]

IC50 (Table 7): 121 nM
SMILES: CC(C)c1nnc2c3ncc(N4CCOCC4)cc3n(Cc3ccc(Cl)cc3)c(=O)n12 [Example 99, 6-(4-chlorobenzyl)-8-(morpholin-4-yl)-3-(propan-2-yl)pyrido[2,3-e][1,2,4]triazolo[4,3-c]pyrimidin-5(6H)-one]

IC50 (Table 7): 175 nM
SMILES: CC(C)Cc1nnc2c3ncc(N4CCOCC4)cc3n(Cc3ccc(Cl)cc3)c(=O)n12 [Example 108, 6-(4-chlorobenzyl)-3-(2-methylpropyl)-8-(morpholin-4-yl)pyrido[2,3-e][1,2,4]triazolo[4,3-c]pyrimidin-5(6H)-one]

IC50 (Table 7): 444 nM
SMILES: COc1cc(Cn2c(=O)n3c(C)c(C(C)C)nc3c3ncc(N4CCC(OC)CC4)cc32)cc(OC)c1 [Example 87, 6-(3,5-dimethoxybenzyl)-8-(4-methoxypiperidin-1-yl)-3-methyl-2-(propan-2-yl)imidazo[1,2-c]pyrido[2,3-e]pyrimidin-5(6H)-one]

IC50 (Table 8): 544 nM
SMILES: C=C(C)c1nnc2c3ncc(N4CCOCC4)cc3c(Cc3cc(OC)cc(OC)c3)nn12 [Example 120, 6-(3,5-dimethoxybenzyl)-8-(morpholin-4-yl)-3-(prop-1-en-2-yl)pyrido[2,3-d][1,2,4]triazolo[4,3-b]pyridazine]

IC50 (Table 7): 394 nM
SMILES: COc1ccc(Cn2c(=O)n3c(C(C)C)nnc3c3ncc(N4CCOCC4)cc32)cc1 [Example 97, 6-(4-methoxybenzyl)-8-(morpholin-4-yl)-3-(propan-2-yl)pyrido[2,3-e][1,2,4]triazolo[4,3-c]pyrimidin-5(6H)-one]

IC50 (Table 9): 1390 nM
SMILES: COc1ncc2c(n1)c1nnc(C(C)(C)C)n1c(=O)n2Cc1ccc(Cl)cc1 [Example 168, 3-tert-butyl-6-(4-chlorobenzyl)-9-methoxypyrimido[4,5-e][1,2,4]triazolo[4,3-c]pyrimidin-5(6H)-one]

IC50 (Table 8): 309 nM
SMILES: CC(C)(C)c1nnc2c3ncc(N4CCC(O)CC4)cc3c(Cc3ccc(Cl)cc3)nn12 [Example 140, 1-[5-tert-butyl-8-(4-chlorobenzyl)-3,4,6,7,13-pentazatricyclo[7.4.0.02,6]trideca-1(9),2,4,7,10,12-hexaen-11-yl]piperidin-4-ol]

The next lines start with the compound.

SMILES: COc1ccc(CN2C(=O)N3C(=NC(=O)C3C(C)(C)C)c3ncc(N4CCOCC4)cc32)cc1 (stereo not shown) [Example 69, 3-tert-butyl-6-(4-methoxybenzyl)-8-(morpholin-4-yl)imidazo[1,2-c]pyrido[2,3-e]pyrimidine-2,5(3H,6H)-dione]
IC50 (Table 6): 98.3 nM

SMILES: COc1ccc(CN2C(=O)N3CC(COC(C)(C)C)N=C3c3ncc(N4CCOCC4)cc32)cc1 (stereo not shown) [Example 57, 2-(tert-butoxymethyl)-6-(4-methoxybenzyl)-8-(morpholin-4-yl)-2,6-dihydroimidazo[1,2-c]pyrido[2,3-e]pyrimidin-5(3H)-one]
IC50 (Table 6): 3280 nM

SMILES: COc1ccc(CN2C(=O)N3C(=NCC3COC(C)(C)C)c3ncc(N4CCOCC4)cc32)cc1 (stereo not shown) [Example 67, 3-(tert-butoxymethyl)-6-(4-methoxybenzyl)-8-(morpholin-4-yl)-2,6-dihydroimidazo[1,2-c]pyrido[2,3-e]pyrimidin-5(3H)-one]
IC50 (Table 6): 218 nM

SMILES: COc1cc(Cn2c(=O)n3c(C)c(C(C)C)nc3c3ncc(N4CCOCC4)cc32)cc(OC)c1 [Example 79, 6-(3,5-dimethoxybenzyl)-3-methyl-8-(morpholin-4-yl)-2-(propan-2-yl)imidazo[1,2-c]pyrido[2,3-e]pyrimidin-5(6H)-one]
IC50 (Table 7): 53.7 nM

SMILES: COc1ccc(CN2C(=O)N3CC(C4CCC4)N=C3c3ncc(N4CCOCC4)cc32)cc1 (stereo not shown) [Example 33, 2-cyclobutyl-6-(4-methoxybenzyl)-8-(morpholin-4-yl)-2,6-dihydroimidazo[1,2-c]pyrido[2,3-e]pyrimidin-5(3H)-one]
IC50 (Table 6): 219 nM

SMILES: COCC1CN=C2c3ncc(N4CCOCC4)cc3N(Cc3ccc(Cl)cc3)C(=O)N21 (stereo not shown) [Example 13, 6-(4-chlorobenzyl)-3-(methoxymethyl)-8-(morpholin-4-y1)-2,6-dihydroimidazo[1,2-c]pyrido[2,3-e]pyrimidin-5(3H)-one]
IC50 (Table 6): 1260 nM

SMILES: COc1cc(CN2C(=O)N3CC(C(C)C)N=C3c3ncc(N4CCOCC4)cc32)cc(OC)c1 (stereo not shown) [Example 4, 6-(3,5-dimethoxybenzyl)-8-(morpholin-4-yl)-2-(propan-2-yl)-2,6-dihydroimidazo[1,2-c]pyrido[2,3-e]pyrimidin-5(3H)-one]
IC50 (Table 6): 178 nM

SMILES: CCC1CN=C2c3ncc(N4CCOCC4)cc3N(Cc3cc(OC)cc(OC)c3)C(=O)N21 (stereo not shown) [Example 6, 6-(3,5-dimethoxybenzyl)-3-ethyl-8-(morpholin-4-yl)-2,6-dihydroimidazo[1,2-c]pyrido[2,3-e]pyrimidin-5(3H)-one]
IC50 (Table 6): 504 nM

SMILES: CCc1nc2c3ncc(NCC4COC4)cc3n(Cc3cc(OC)cc(OC)c3)c(=O)n2c1C [Example 76, 6-(3,5-dimethoxybenzyl)-2-ethyl-3-methyl-8-{[(oxetan-3-yl)methyl]amino}imidazo[1,2-c]pyrido[2,3-e]pyrimidin-5(6H)-one]
IC50 (Table 7): 381 nM

SMILES: COc1ccc(CN2C(=O)N3C(=NCC3c3ccccc3)c3ncc(N4CCOCC4)cc32)cc1 (stereo not shown) [Example 29, 6-(4-methoxybenzyl)-8-(morpholin-4-yl)-3-phenyl-2,6-dihydroimidazo[1,2-c]pyrido[2,3-e]pyrimidin-5(3H)-one]
IC50 (Table 6): 368 nM

SMILES: COc1cc(Cn2c(=O)n3c(C)c(C)nc3c3ncc(N4CCOCC4)cc32)cc(OC)c1 [Example 82, 6-(3,5-dimethoxybenzyl)-2,3-dimethyl-8-(morpholin-4-yl)imidazo[1,2-c]pyrido[2,3-e]pyrimidin-5(6H)-one]
IC50 (Table 7): 332 nM

SMILES: COc1cc(CN2C(=O)N3C(=NCC3C)c3ncc(N4CCOCC4)cc32)cc(OC)c1 (stereo not shown) [Example 2]
IC50 (Table 6): 1190 nM
